The target of series [1] is T1, DispSf.
T1 construct: mature polypeptide with polyhistidine tag
The experiment in a line: ITC. In kind it is binding, Mammaliicoccus fleurettii.

Series [2] addresses T2, DispTs2 (Terribacillus saccharophilus, UniProt A0A075LPR4).
T2 construct: gene GZ22_15930; mature polypeptide with polyhistidine tag
The experiment in a line: ITC and crystal structure ([…] Å). It counts as binding.

The target of series [3] is T3, DispLp (Lactiplantibacillus paraplantarum, UniProt A0AAD0TQY4).
T3 construct: gene LP667_05900; mature polypeptide with polyhistidine tag
T3 sequence (A0AAD0TQY4 31-361): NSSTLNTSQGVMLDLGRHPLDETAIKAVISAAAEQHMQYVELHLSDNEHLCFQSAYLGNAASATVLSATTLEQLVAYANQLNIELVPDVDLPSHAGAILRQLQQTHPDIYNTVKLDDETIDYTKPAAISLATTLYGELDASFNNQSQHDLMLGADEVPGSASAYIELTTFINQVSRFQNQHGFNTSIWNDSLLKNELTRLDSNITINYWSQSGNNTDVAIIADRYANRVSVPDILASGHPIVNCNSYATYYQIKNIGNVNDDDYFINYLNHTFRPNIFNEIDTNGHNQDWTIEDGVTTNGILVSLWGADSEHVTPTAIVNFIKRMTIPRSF
As to the kind of experiment: crystal structure ([…] Å) and ITC. In kind it is binding.

For series [4], the target named is T2, DispTs2. As to the kind of experiment: crystal structure by soaking ([…] Å); only the NAG-thiazoline unit (NGT) modelled. In kind it is binding.
Substrate in series [5]: CC(=O)N[C@H]1[C@H](Oc2ccc3c(C)cc(=O)oc3c2)O[C@H](CO)[C@@H](O)[C@@H]1O
As to the kind of experiment: purified protein.

`CC(=O)N[C@H]1CN2CC[C@H](O)[C@@H]2[C@@H](O)[C@@H]1O` [6-Ac-Cas, 6-acetamido-6-deoxy-castanospermine]: the Kd in series [1] turned out to be 15 µM; in series [2], 6 µM; in series [3], 1.12 mM.

As to `CC(=O)N[C@H]1[C@H](OC[C@H]2O[C@@H]3SC(C)=N[C@@H]3[C@@H](O)[C@@H]2O)O[C@H](CO)[C@@H](O)[C@@H]1O` [di-NAG-thiazoline, GlcNAc-β(1,6)-GlcNAc-thiazoline], in series [4], the “crystal structure by soaking (2.17 Å); only the NAG-thiazoline unit (NGT) modell” value is “The electron density for the first unit of di-NAG-thiazoline (corresponding to GlcNAc-thiazoline, NGT in the PDB dictionary) was well defined”.

B1: DispTs2 (Terribacillus saccharophilus) (protein)
chain: QDQEKGITIDISRKYYSIKTLKAIVDEISANGGDYLQLHFSDNESYAIASEFLGQNSENPNSAYLTKKELLSLIAYSNDRNIMVIPDIDLPAHSKGWLNIMKEKDSGLYTDIVTDYSEDTLDYHNNAVALYTANQLLDEVLDLFYQPKFAGKQRIVLGGDEVPGSGAHQTDFIRFMNQIAKTAKASNYEPQMWNDSITPEGIQNLDRSFSILYWKQSTLSNGAQSLDVQDFEENGLSVYNYNAYSLYFLPSTRFTQEDITEQIDYMKWAYAYNKFFYISDYYKQVDTPNVKGSSLVFWGEHANDLSQERLLKQEKPLIQNFLGL
On to B1, for which the Km in series [5] worked out at 2.5 ± 0.1 mM.

For orientation: Kd means the free concentration of one partner at which half of the binding sites on the other are occupied at equilibrium, for simple one-to-one binding. A higher Kd goes with lower affinity. In general, Km refers to the concentration of substrate that gives half-maximal velocity.
